How the values were obtained:
[1] = Induction of anti-CD3 antibodies-stimulated human T cell activation at 8 uM assessed fold increase in CD25 expression measured by ELISA assay; format: functional, T cell line; further: reference of the scale not given here
[2] = Induction of anti-CD3/CD28 antibodies-stimulated human T cell activation at 4 uM assessed fold increase in CD25 expression measured by ELISA assay; format: functional, T cell line
[3] = Induction of anti-CD3/CD28 antibodies-stimulated human T cell activation at 0.3 uM assessed fold increase in IL-2 secretion measured by ELISA assay; format: functional, T cell line
[4] = Induction of anti-CD3 antibodies-stimulated human T cell activation at 1 uM assessed fold increase in IL-2 secretion measured by ELISA assay; format: functional, T cell line; further: reference of the scale not given here
[5] = Induction of anti-CD3/CD28 antibodies-stimulated human T cell activation at 1 uM assessed fold increase in CD25 expression measured by ELISA assay; format: functional, T cell line
[6] = Induction of anti-CD3 antibodies-stimulated human T cell activation at 8 uM assessed fold increase in IL-2 secretion measured by ELISA assay; format: functional, T cell line; further: reference of the scale not given here
[7] = Induction of anti-CD3/CD28 antibodies-stimulated human T cell activation at 1 uM assessed fold increase in IL-2 secretion measured by ELISA assay; format: functional, T cell line
[8] = Induction of anti-CD3/CD28 antibodies-stimulated human T cell activation at 4 uM assessed fold increase in IL-2 secretion measured by ELISA assay; format: functional, T cell line
[9] = biological target: E3 ubiquitin-protein ligase CBL-B (Homo sapiens, UniProt Q13191); assay: Inhibition of N-terminal Avi-tagged human CBL-B (36 to 427 residues) incubated with 60 nM Src kinase for 1.5 hrs followed by incubation with fluorescently labeled UbcH5B-Ub for 1 hr and measured by TR-FRET assay; format: single protein
E3 ubiquitin-protein ligase CBL-B, sequence (Q13191 whole entry, the tested form may be a part): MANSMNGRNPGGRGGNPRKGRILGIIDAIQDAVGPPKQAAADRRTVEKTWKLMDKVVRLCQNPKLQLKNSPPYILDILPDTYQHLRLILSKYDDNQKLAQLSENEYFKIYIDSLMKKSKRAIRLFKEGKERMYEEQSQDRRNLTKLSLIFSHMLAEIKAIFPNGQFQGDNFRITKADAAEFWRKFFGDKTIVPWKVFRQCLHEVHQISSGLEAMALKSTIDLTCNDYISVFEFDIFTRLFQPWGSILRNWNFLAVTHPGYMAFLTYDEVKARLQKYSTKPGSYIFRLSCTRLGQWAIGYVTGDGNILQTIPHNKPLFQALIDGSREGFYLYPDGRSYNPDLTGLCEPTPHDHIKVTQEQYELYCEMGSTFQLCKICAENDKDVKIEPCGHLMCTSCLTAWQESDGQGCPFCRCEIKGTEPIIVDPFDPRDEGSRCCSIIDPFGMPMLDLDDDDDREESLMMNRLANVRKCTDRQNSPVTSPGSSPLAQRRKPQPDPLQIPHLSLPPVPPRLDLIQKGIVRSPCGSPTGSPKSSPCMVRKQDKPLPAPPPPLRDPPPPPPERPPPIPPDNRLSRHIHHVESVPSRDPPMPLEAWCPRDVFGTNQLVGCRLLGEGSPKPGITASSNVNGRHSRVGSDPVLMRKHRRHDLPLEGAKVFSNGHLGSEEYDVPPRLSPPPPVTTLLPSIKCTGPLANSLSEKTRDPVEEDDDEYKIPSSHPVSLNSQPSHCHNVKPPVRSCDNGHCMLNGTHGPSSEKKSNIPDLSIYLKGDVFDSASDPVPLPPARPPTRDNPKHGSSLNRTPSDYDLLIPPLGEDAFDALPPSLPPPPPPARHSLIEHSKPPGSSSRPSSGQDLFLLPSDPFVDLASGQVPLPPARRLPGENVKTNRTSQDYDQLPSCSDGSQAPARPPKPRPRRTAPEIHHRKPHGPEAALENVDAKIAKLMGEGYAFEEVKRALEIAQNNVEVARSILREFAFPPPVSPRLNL

[10] = Induction of anti-CD3 antibodies-stimulated human T cell activation at 1 uM assessed fold increase in CD25 expression measured by ELISA assay; format: functional, T cell line; further: reference of the scale not given here
[11] = Induction of anti-CD3/CD28 antibodies-stimulated human T cell activation at 0.3 uM assessed fold increase in CD25 expression measured by ELISA assay; format: functional, T cell line

| IC50 [9] | SMILES | fold change (FC) [1] | fold change (FC) [2] | fold change (FC) [3] | fold change (FC) [4] | fold change (FC) [5] | fold change (FC) [6] | fold change (FC) [7] | fold change (FC) [8] | fold change (FC) [10] | fold change (FC) [11] | fold change (FC) ([1]; 8 µM) | fold change (FC) ([3]; 0.3 µM) | fold change (FC) ([4]; 1 µM) | fold change (FC) ([7]; 1 µM) | fold change (FC) ([8]; 4 µM) |
| --- | --- | --- | --- | --- | --- | --- | --- | --- | --- | --- | --- | --- | --- | --- | --- | --- |
| < 100 nM | C[C@H](Cc1nncn1C)c1cccc(N2Cc3c(cc(C(=O)N4CC(O)C4)cc3C3CC3)C2=O)c1 | >=1.001 | 1.01 | 1.01 | 0.151 | 1.01 | >=0.201 | 1.01 | 2.51 | 0.801 | 1.01 |  |  |  |  |  |
| < 100 nM | C[C@H](Cc1nncn1C)c1cccc(N2Cc3c(cc(C4CC4)cc3C(F)(F)F)C2=O)c1 | >=1.001 | 1.31 | 1.01 | >=0.201 | 1.01 | >=0.201 | 1.01 | 2.51 | 0.801 | 1.01 |  |  |  |  |  |
| < 100 nM | Cn1cnnc1CC(C)(C)c1cccc(N2Cc3c(cccc3C(F)(F)F)C2=O)c1 | >=1.001 | 1.51 | 1.01 | >=0.201 | 1.01 | >=0.201 | 2.51 | >=7.5 | 0.801 | 1.01 |  |  |  |  |  |
| < 100 nM | C[C@H](Sc1nncn1C)c1cccc(NC(=O)c2cc(C3CC3)cc(C(F)(F)F)n2)c1 | >=1.001 | 1.01 | 1.01 | <=0.05 | 1.01 | 0.101 | 1.01 | 2.51 | 0.801 | 1.01 |  |  |  |  |  |
| < 100 nM | Cn1cnnc1C(F)(F)[C@](C)(F)c1cccc(N2Cc3c(cc(CN4CC[C@H](C#N)C4)cc3C(F)(F)F)C2=O)c1 | >=1.001 | 1.31 | 5 | >=0.201 | 1.31 | >=0.201 | >=7.5 | >=7.5 | >=1.001 | 1.01 |  |  |  |  |  |
| < 100 nM | Cn1cnnc1[C@H](F)C(C)(F)c1cccc(N2Cc3c(cccc3C(F)(F)F)C2=O)c1 (single isomer, unassigned) | 0.801 | 1.01 | 1.01 | <=0.05 | 1.01 | 0.101 | 1.01 | 1.01 | 0.601 | 1.01 |  |  |  |  |  |
| < 100 nM | C[C@H](Sc1nncn1C)c1cccc(NC(=O)c2ccc(C#N)c(C3CC3)n2)c1 | >=1.001 | 1.31 | 1.01 | <=0.05 | 1.31 | 0.101 | 2.51 | 5 | 0.601 | 1.01 |  |  |  |  |  |
|  | CC1OCC1Oc1cc([C@H](C)Cc2nncn2C)cc(N2Cc3c(cccc3C(F)(F)F)C2=O)n1 (some centres not stated) | 0.601 | 1.01 | 1.01 | 0.051 | 1.01 | 0.101 | 1.01 | 1.01 | 0.601 | 1.01 |  |  |  |  |  |
|  | Cc1conc1CC(C)c1cccc(N2Cc3c(cccc3C(F)(F)F)C2=O)c1 (configuration not stated) | 0.801 | 1.01 | 1.01 | <=0.05 | 1.01 | 0.051 | 1.01 | 1.01 | 0.601 | 1.01 |  |  |  |  |  |
|  | Cn1cnnc1C(F)(F)C(C)(F)c1cccc(N2Cc3c(cccc3C(F)(F)F)C2=O)c1 (racemic) | 0.601 | 1.01 | <=1 | >=0.201 | 1.01 | >=0.201 | <=1 | 1.01 | 0.601 | 1.01 |  |  |  |  |  |
|  | Cc1ccc(C(=O)Nc2cccc(C(C)Cc3nccn3C)c2)nc1C1CC1 (stereo in doubt; 214) |  | 1.01 |  |  | <=1 | 0.051 |  |  | <=0.6 | <=1 | <=0.6 | >=7.5 | 0.051 | >=7.5 | >=7.5 |
|  | Cn1cnnc1[C@H](F)[C@@](C)(F)c1cccc(N2Cc3c(cc(C4CC4)cc3C(F)(F)F)C2=O)c1 (single isomer, unassigned; 482) | 0.801 | 1.01 | <=1 | 0.051 | 1.01 | 0.051 | 1.01 | 1.01 | 0.601 | 1.01 |  |  |  |  |  |
|  | Cc1ccc(C(=O)Nc2cccc([C@H](C)Sc3nncn3C)c2)nc1C | 0.601 | 1.31 | 1.01 | <=0.05 | 1.01 | >=0.201 | 2.51 | 2.51 | <=0.6 | <=1 |  |  |  |  |  |
|  | Cc1cccc2nc(C(=O)Nc3cccc([C@H](C)Sc4nncn4C)c3)ccc12 | 0.801 | 1.01 | 2.51 | <=0.05 | 1.01 | 0.101 | 5 | >=7.5 | 0.801 | 1.01 |  |  |  |  |  |
|  | Cc1c[nH]nc1C[C@H](C)c1cccc(N2Cc3c(cccc3C(F)(F)F)C2=O)c1 (single isomer, unassigned) | 0.801 | 1.01 | 1.01 | 0.101 | 1.01 | 0.151 | 1.01 | 1.01 | 0.601 | 1.01 |  |  |  |  |  |
|  | C[C@H](Sc1nncn1C)c1cccc(NC(=O)c2cc(C(F)(F)F)cc(C(F)(F)F)n2)c1 | 0.601 | 1.01 | <=1 | <=0.05 | <=1 | <=0.05 | <=1 | 1.01 | <=0.6 | <=1 |  |  |  |  |  |
|  | C[C@H](Cc1nncn1C)c1cc(NC2COC2)cc(N2Cc3c(cccc3C(F)(F)F)C2=O)c1 | 0.801 | 1.01 | <=1 | 0.051 | 1.01 | 0.051 | 1.01 | 1.01 | 0.601 | 1.01 |  |  |  |  |  |
|  | C[C@H](Sc1nncn1C)c1cccc(NC(=O)c2cncc(C(F)(F)F)n2)c1 | 0.601 | 1.01 | <=1 | <=0.05 | 1.01 | <=0.05 | 1.01 | 1.01 | <=0.6 | <=1 |  |  |  |  |  |
|  | Cn1cnnc1C(F)(F)[C@](C)(F)c1cccc(N2Cc3c(cc(CN4CC(C#N)C4)cc3C(F)(F)F)C2=O)c1 | >=1.001 | 1.01 | 1.01 | 0.051 | 1.01 | 0.101 | 2.51 | 5 | 0.801 | 1.01 |  |  |  |  |  |
|  | C[C@H](Sc1nncn1C)c1cccc(NC(=O)c2cc(C(C)(C)O)cc(C(F)(F)F)n2)c1 | >=1.001 | 1.01 | <=1 | <=0.05 | 1.01 | <=0.05 | <=1 | 1.01 | 0.601 | 1.01 |  |  |  |  |  |
